This passage reports solubility and Solubility in water results from US8455662B2, “Formulations for benzimidazolyl pyridyl ethers” (Novartis AG, priority 2006, dated 2013).

The nature of the series: Aqueous solubility of API at various pHs. The format is physicochemical.

As usually defined, the solubility is the concentration that dissolves in the medium under given conditions. A higher solubility goes with much dissolved substance. On to `Cn1c(Nc2ccc(C(F)(F)F)cc2)nc2cc(Oc3ccnc(-c4ncc(C(F)(F)F)[nH]4)c3)ccc21` [API, {1-methyl-5-[2-(5-trifluoromethyl-1H-imidazol-2-yl)-pyridin-4-yloxy]-1H-benzoimidazol-2-yl}-(4-trifluoromethyl-phenyl)amine], for which the solubility (aqueous medium, pH 7, aqueous buffer) is less than 1 µg/mL. Consider `Cn1c(Nc2ccc(C(F)(F)F)cc2)nc2cc(Oc3ccnc(-c4ncc(C(F)(F)F)[nH]4)c3)ccc21` [{1-Methyl-5-[2-(5-trifluoromethyl-1H-imidazol-2-yl)-pyridin-4-yloxy]-1H-benzoimidazol-2-yl}-(4-trifluoromethyl-phenyl)amine], for which the Solubility in water result (water) is on record as “practically insoluble”.
